In PMC3886529, “Structural Features of the Peptide Homologous to 6-25 Fragment of Influenza A PB1 Protein” (International Journal of Peptides, 2013):
Ends that are not written are not given here.

What was measured:
PB1 (6-25) [1] = biological target: T1, PB1 (6-25) (Influenza A virus, UniProt O89749); format: physicochemical
PB1 (6-25) [2] = biological target: T1, PB1 (6-25); format: binding
PB1 (6-25) [3] = biological target: T1, PB1 (6-25); format: physicochemical; remark: listed apart in the source
PB1 (6-25) [4] = biological target: T1, PB1 (6-25); format: physicochemical; settings: pH 7.4
PB1 (6-25) [5] = biological target: T1, PB1 (6-25); assay: biochemical; format: binding
[6] = format: physicochemical; settings: diluted to 0.2 mM, negative staining (phosphotungstic acid, pH 7.4), 80 kV
[7] = Circular dichroism, secondary structure of PB1 (6-25) in solution; format: physicochemical; settings: CD 194–320 nm, 1 mg/mL solution
Procedure: Circular dichroism (194–320 nm) was measured on PB1 (6-25) 1 mg/mL solution. Spectra were analyzed with CDNN software.

Row | Substance | diameter of aggregates (PB1 (6-25) [1]) | effect on antiparallel beta-sheets of PB1 (6-25) (PB1 (6-25) [2]) | reversibility of insoluble aggregates (PB1 (6-25) [3]) | characteristic linear size of structured aggregates (PB1 (6-25) [4]) | Kd (PB1 (6-25) [5]) [µM] | formation of structured aggregates, single peptide alone [6] | alpha-helix content ([7]; CDNN software) [%] | antiparallel beta-sheet content ([7]; CDNN software) [%] | beta-turns content ([7]; CDNN software) [%] | random coil structure content ([7]; CDNN software) [%] | secondary structure in solution ([7]; compared with the molecular dynamics model)
1 | TLLFLKVP-OH [PB1 (6-13), TLLFLKVP] | 500–1000 nm | contributed to increase antiparallel beta-sheets | could not reverse into soluble forms after dilution or heating | about 500 nm | 200 to 1000 | not in the samples containing either one of the peptides |  |  |  |  | 
2 | TLLFLKVPAQNAISTTFPYT [PB1 (6-25), peptide comprised of amino acid residues 6-25 of influenza virus PB1] |  |  |  |  |  | not in the samples containing either one of the peptides | 8 | 30 | 25 | 37 | structure similar to the described model of beta-hairpin
